Experimental data taken from the supplement of paper PMC10307832.

Columns and labels:
Test in all cases: relative viability (nuclei count vs DMSO), 5 days (fraction); higher = more cells survive
[1] = compound: CC(C)(C)c1nc(-c2cccc(NS(=O)(=O)c3c(F)cccc3F)c2F)c(-c2ccnc(N)n2)s1 [Dabrafenib] + Nc1nc2[nH]cc(CCc3ccc(C(=O)N[C@@H](CCC(=O)O)C(=O)O)cc3)c2c(=O)[nH]1 [Pemetrexed] (partner 0.2 µM)
Outline: (§1)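 Five library-drug doses in √10 steps were combined with a fixed anchor-drug dose, or a single drug was given alone, by pin tool to lung cancer cell lines in 1536-well plates the day after seeding. Nuclei were stained and counted after 5 days. Relative viability is the nuclei count in treated wells over that in vehicle wells, taken as the median of duplicate plates.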

[2] = compound: NC(=O)c1ccc(N(C(N)=O)c2c(F)cccc2F)nc1-c1ccc(F)cc1F [VX-702] + Nc1ncn([C@H]2C[C@H](O)[C@@H](CO)O2)c(=O)n1 [Decitabine] (partner 2 µM)
Outline: as §1

[3] = compound: CC(C)(C)c1nc(-c2cccc(NS(=O)(=O)c3c(F)cccc3F)c2F)c(-c2ccnc(N)n2)s1 [Dabrafenib] + CC(=O)c1c(C)c2cnc(Nc3ccc(N4CCNCC4)cn3)nc2n(C2CCCC2)c1=O [Palbociclib] (partner 0.5 µM)
Outline: as §1

[4] = compound: NC(=O)c1ccc(N(C(N)=O)c2c(F)cccc2F)nc1-c1ccc(F)cc1F [VX-702] + Cc1nc(NC(=O)N2CCC[C@H]2C(N)=O)sc1-c1ccnc(C(C)(C)C(F)(F)F)c1 [Alpelisib] (partner 2 µM)
Outline: as §1

| Cell Line | relative viability ([1]; first compound 0.003 µM) | relative viability ([1]; first compound 0.009487 µM) | relative viability ([1]; first compound 0.03 µM) | relative viability ([1]; first compound 0.09487 µM) | relative viability ([1]; first compound 0.3 µM) | relative viability ([2]; first compound 0.02 µM) | relative viability ([2]; first compound 0.2 µM) | relative viability ([2]; first compound 0.6325 µM) | relative viability ([2]; first compound 2 µM) | relative viability ([3]; first compound 0.003 µM) | relative viability ([3]; first compound 0.009487 µM) | relative viability ([3]; first compound 0.03 µM) | relative viability ([3]; first compound 0.09487 µM) | relative viability ([3]; first compound 0.3 µM) | relative viability ([4]; first compound 0.02 µM) | relative viability ([4]; first compound 0.2 µM) | relative viability ([4]; first compound 0.6325 µM) | relative viability ([4]; first compound 2 µM) |
| --- | --- | --- | --- | --- | --- | --- | --- | --- | --- | --- | --- | --- | --- | --- | --- | --- | --- | --- |
| LU99A | 0.25 | 0.192 | 0.181 | 0.161 | 0.183 | 0.93 | 0.869 | 0.93 | 0.872 | 0.477 | 0.387 | 0.388 | 0.39 | 0.393 | 0.52 | 0.485 | 0.48 | 0.467 |
| ChaGo-K-1 | 0.219 | 0.256 | 0.263 | 0.246 | 0.26 | 0.532 | 0.493 | 0.516 | 0.525 | 0.874 | 0.925 | 0.838 | 0.89 | 0.996 | – | – | – | – |
| NCI-H2170 | 0.274 | 0.265 | 0.26 | 0.252 | 0.282 | 0.444 | 0.415 | 0.466 | 0.486 | 0.429 | 0.377 | 0.383 | 0.377 | 0.397 | 0.801 | 0.61 | 0.757 | 0.869 |
| NCI-H2347 | – | 0.445 | 0.362 | 0.399 | 0.405 | 0.643 | 0.606 | 0.683 | 0.639 | – | 0.513 | 0.471 | 0.476 | 0.432 | 1.01 | 1.12 | 1.05 | 1.14 |
| NCI-H1437 | 0.338 | 0.304 | 0.318 | 0.324 | 0.321 | 0.618 | 0.516 | 0.544 | 0.607 | 0.307 | 0.35 | 0.363 | 0.384 | 0.413 | 0.943 | 0.858 | 0.911 | 1.14 |
| CAL-12T | 1.21 | 1.44 | 1.18 | 1.08 | 1.14 | – | – | – | – | 0.461 | 0.486 | 0.599 | 0.388 | 0.722 | 1.22 | 1.27 | 1.16 | 1.24 |
| NCI-H1651 | 0.575 | 0.555 | 0.525 | 0.416 | 0.613 | 0.571 | 0.573 | 0.649 | 0.615 | 0.499 | 0.494 | 0.51 | 0.524 | 0.505 | 0.928 | 0.948 | 0.882 | 1.16 |
| RERF-LC-KJ | 0.491 | 0.525 | 0.477 | 0.501 | 0.536 | 0.762 | 0.759 | 0.66 | 0.685 | 1.11 | 1.09 | 1.13 | 1.02 | 1.13 | 0.969 | 0.69 | 0.8 | 0.794 |
| EKVX | – | 0.484 | 0.419 | 0.408 | 0.395 | 0.425 | 0.29 | 0.303 | 0.276 | – | 0.41 | 0.387 | 0.383 | 0.445 | 0.814 | 0.801 | 0.73 | 0.855 |
| EMC-BAC-2 | – | 0.401 | 0.392 | 0.32 | 0.377 | 0.969 | 0.962 | 0.944 | 0.885 | – | 0.497 | 0.448 | 0.427 | 0.418 | 0.766 | 0.671 | 0.723 | 0.852 |
| PC-3 [JPC-3] | – | 1.24 | 1.12 | 1.05 | 1.14 | 0.804 | 0.888 | 0.888 | 0.853 | – | 0.571 | 0.6 | 0.534 | 0.55 | 1.02 | 1.06 | 1.07 | 1.02 |
| NCI-H596 | – | 0.492 | 0.44 | 0.579 | 0.469 | 1.3 | 1.55 | 1.15 | 1.16 | – | – | – | – | – | 0.437 | 0.436 | 0.509 | 0.426 |
| Calu-6 | – | – | – | – | – | – | – | – | – | – | – | – | – | – | 0.942 | 1.07 | 1 | 1.2 |
| NCI-H2342 | 0.751 | 0.779 | 0.747 | 0.765 | 0.858 | 0.788 | 0.821 | 0.697 | 0.754 | 0.511 | 0.566 | 0.474 | 0.608 | 0.523 | – | – | – | – |
| A549 | – | – | – | – | – | 0.303 | 0.249 | 0.332 | 0.177 | – | – | – | – | – | 0.727 | 0.666 | 0.692 | 0.857 |
| NCI-H1563 | 0.667 | 0.836 | 0.591 | 0.822 | 0.744 | – | – | – | – | – | – | – | – | – | 0.905 | 0.997 | 0.835 | 0.876 |
| NCI-H1299 | – | – | – | – | – | – | – | – | – | – | – | – | – | – | 1.14 | 1.1 | 1.21 | 1.15 |
| NCI-H727 | – | – | – | – | – | 0.827 | 0.914 | 0.753 | 0.822 | 0.598 | 0.64 | – | 0.719 | 0.675 | 0.504 | 0.552 | 0.621 | 0.634 |
| NCI-H1648 | 0.746 | 0.781 | – | 0.654 | 0.738 | 0.443 | 0.457 | 0.469 | 0.481 | 0.317 | 0.215 | – | 0.251 | 0.329 | – | – | – | – |
| NCI-H1703 | – | – | – | – | – | – | – | – | – | – | – | – | – | – | 0.304 | 0.376 | 0.215 | 0.334 |
| EBC-1 | – | – | – | – | – | – | – | – | – | – | – | – | – | – | 0.777 | 0.835 | 0.687 | 0.892 |
